US10105437B2, “Epitopes related to coeliac disease” (BTG International Limited, priority 2004, dated 2018)

System: PBMC from HLA-DQ2+ coeliac subjects
Assay: Interferon gamma ELISPOT, second round wheat gliadin and glutenin 16mer library
Format: cell-based, human
Conditions: 16mers pre-treated with transglutaminase, 18 or 28 subjects; for subjects with >70% of maximal peptide-specific response: normalized to individual's maximal response
Excerpt: 12mer peptides were then identified in which each potential deamidation site could be in position 4, 6 or 7 in the 9mer located within HLA-DQ2 binding groove (HLA-DQ2 anchors at these positions show a preference for glutamate). Candidate 12mer core epitope sequences were then flanked with glycine followed by the N-terminal residue present in the parent gliadin polypeptide and at the C-terminal by the C-terminal residue present in the parent gliadin polypeptide followed by glycine (i.e. GXXXXXXXQXXXXXXG (SEQ ID NO: 1936)). […]
IFNγ ELISpot assays (Mabtech, Sweden) were performed in 96-well plates (MAIP S-45, Millipore) in which each well contained 25 mcl of peptide solution and 100 mcl of PBMC (2-8×10^5/well) in RPMI containing 10% heat inactivated human AB serum. After development and drying, IFNγ ELISpot plates were assessed using the MAIP automated ELISpot plate counter. Data was then analysed according to a novel algorithm (Expectation Maximization: EM) to define and quantify interferon-gamma responses to 9mer sequences contained within the peptide library (see FIG. 3 and below). 9mer peptides were then rationalised according to an algorithm that assumes redundancy in T-cell recognition, the “IterativeCluster” algorithm (see FIG. 4 and below), by allowing groups of amino acids with similar chemical properties at any one position in the 9mer, or for glutamate to replace glutamine at any position (assuming deamidation may have occurred).
All 2nd round 16mer peptides were assessed in at least 18 subjects. […] All 16mers identified for the second round Oxford library also fulfilled the selection criteria for the Melbourne second round library.
The second round peptide library data was analysed according to the “dominance” of peptide responses in the interferon gamma ELISPOT in individual subjects i.e. the percent response of an individual's PBMC to a specific peptide normalized against that individual's maximal peptide-induced response. Sequences of peptides that stimulated at least 40% of the maximal peptide-specific response in at least one subject are shown in Table 1 below. The dataset supports the consistency and “dominance” of peptides conforming to the sequences identified using the first round 20mer peptide library using the Expectation Maximization (EM) algorithm described above.

| Substance | subjects with 10-40% of maximal peptide-specific response | subjects with 40-70% of maximal peptide-specific response | subjects with <10% of maximal peptide-specific response | subjects with >70% of maximal peptide-specific response |
| --- | --- | --- | --- | --- |
| DAIRAIIYSIVLQEQQ [wheat 16mer, second round library] | Nil | Nil | 17/18 | Nil |
| G-FFPQPQQQFPQPQQ-G: wheat 16mer, second round library (GFPQQPQQQFPQPQQG; Description of Artificial Sequence: Synthetic gluten peptide) | 10/28 | 1/28 | 17/28 | Nil |
| G-FPQLQQPQQPFPQQ-G: wheat 16mer, second round library (GFPQTQQPQQPFPQQG; Description of Artificial Sequence: Synthetic gluten peptide) | 1/28 | Nil | 26/28 | 1/28 |
| G-FPQPQQPQQPFPQQ-G: wheat 16mer, second round library (GFPQPQQPQQSFPQQG; Description of Artificial Sequence: Synthetic gluten peptide) | 3/28 | 1/28 | 25/28 | Nil |
| G-FPQQPQQQFPQPQQ-G: wheat 16mer, second round library (GQQPFPQPQQQFPQPG; Description of Artificial Sequence: Synthetic gluten peptide) | Nil | 1/28 | 27/28 | Nil |
| G-IQVDPSGQVQWPQQ-G: wheat 16mer, second round library (GMQADPSGQVQWPQQG; Description of Artificial Sequence: Synthetic gluten peptide) | Nil | Nil | 17/18 | 1/18 |
| G-LQPFPQPQLPFPQP-G: wheat 16mer, second round library (GLQPFPQPQLPFPQPG; Description of Artificial Sequence: Synthetic gluten peptide) | 5/28 | 8/28 | 10/28 | 4/28 |
| G-LQPFPQPQLPYLQP-G: wheat 16mer, second round library (GLQPFPQPQLPYLQPG; Description of Artificial Sequence: Synthetic gluten peptide) | 12/28 | 1/28 | 14/28 | 1/28 |
| G-LQPFPQPQLPYPQP-G: wheat 16mer, second round library (GLQPFPQPQLPYPQPG; Description of Artificial Sequence: Synthetic gluten peptide) | Nil | 8/28 | 6/28 | 14/28 |
| G-LQPFPQPQLPYSQP-G: wheat 16mer, second round library (GLQPFPQPQLPYSQPG; Description of Artificial Sequence: Synthetic gluten peptide) | 12/28 | 3/28 | 11/28 | 2/28 |
| G-LQPFPQPQLSYSQP-G: wheat 16mer, second round library (GLQPFPQPQLSYSQPG; Description of Artificial Sequence: Synthetic gluten peptide) | 2/28 | 1/28 | 25/28 | Nil |
| G-MQVDPSGQVQWPQQ-G: wheat 16mer, second round library (GIQVDPSGQVQWPQQG; Description of Artificial Sequence: Synthetic gluten peptide) | Nil | Nil | 17/18 | 1/18 |
| G-QLPYPQPQLPYPQP-G: wheat 16mer, second round library (GQLPYPQPQLPYPQPG; Description of Artificial Sequence: Synthetic gluten peptide) | 3/28 | 4/28 | 3/28 | 18/28 |
| G-QPFPLQPQQPFPQQ-G: wheat 16mer, second round library (GQPFPWQPQQPFPQQG; Description of Artificial Sequence: Synthetic gluten peptide) | 7/28 | 2/28 | 19/28 | Nil |
| G-QPFPWQPQQPFPQQ-G: wheat 16mer, second round library (GQPTPIQPQQPFPQQG; Description of Artificial Sequence: Synthetic gluten peptide) | 8/28 | 2/28 | 18/28 | Nil |
| G-QQPFPQPQQPFPWQ-G: wheat 16mer, second round library | 5/28 | 8/28 | 6/28 | 9/28 |
| G-QQPFPQPQQPFSQQ-G: wheat 16mer, second round library | 8/28 | 7/28 | 9/28 | 4/28 |
| G-QQPFPQPQQPIPVQ-G: wheat 16mer, second round library | 7/28 | 5/28 | 8/28 | 8/28 |
| G-QQPQFSQQQQIPVI-G: wheat 16mer, second round library (PFPQPQQPFPW; Description of Artificial Sequence: Synthetic gluten peptide) | Nil | 1/28 | 17/18 | Nil |
| G-QQPQQQPQQPFPQQ-G: wheat 16mer, second round library | 5/28 | 1/28 | 22/28 | Nil |
